Assays:
Type in all cases: in vivo
Lolium perenne (LOLPE) [1] = assay: B1 Pre-emergence herbicidal activity; design: key to Pre-emergence herbicidal activity, LOLPE (damage score 0-5): 5=total damage to plant; 0=no damage to plant; settings: pre-emergence application, evaluated after 13 days
Summary of the method: (§1)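 Damage was rated visually on a 0–5 scale (0 no damage, 5 total damage) 13 days after treatment. Soil-sown seeds had been sprayed one day after sowing with an aqueous acetone/water (50:50) solution containing 0.5% Tween 20, then kept in a glasshouse at 24/16 °C, 14 h light, 65% humidity.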

Avena fatua (AVEFA) [2] = assay: B2 Post-emergence herbicidal activity; settings: post-emergence application, evaluated after 13 days
Summary of the method: (§2)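 Visual damage score (0 = none, 5 = total) taken 13 days after treatment. Seedlings had been cultivated 8 days in pots of standard soil before being sprayed with an aqueous solution of compound in acetone/water (50:50) containing 0.5% Tween 20.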

[3] = tested on: Alopecurus myosuroides (ALOMY); assay: B1 Pre-emergence herbicidal activity; design: key: 5=total damage to plant; 0=no damage to plant; settings: pre-emergence application, evaluated after 13 days
Summary of the method: as §1

Avena fatua (AVEFA) [4] = assay: B1 Pre-emergence herbicidal activity; design: key: 5=total damage to plant; 0=no damage to plant; settings: pre-emergence application, evaluated after 13 days
Summary of the method: as §1

[5] = tested on: Triticum aestivium (TRZAW); assay: B1 Pre-emergence herbicidal activity; design: key: 5=total damage to plant; 0=no damage to plant; settings: pre-emergence application, evaluated after 13 days
Summary of the method: as §1

Setaria fabenr (SETFA) = assay: B1 Pre-emergence herbicidal activity; design: key to Pre-emergence herbicidal activity, SETFA (damage score 0-5): 5=total damage to plant; 0=no damage to plant; settings: pre-emergence application, evaluated after 13 days
Summary of the method: as §1

[6] = tested on: Echinochloa crus-galli (ECHCG); assay: B2 Post-emergence herbicidal activity; design: key to Post-emergence herbicidal activity, ECHCG (damage score 0-5): 5=total damage to plant; 0=no damage to plant; settings: post-emergence application, evaluated after 13 days
Summary of the method: as §2

Lolium perenne (LOLPE) [7] = assay: B2 Post-emergence herbicidal activity; settings: post-emergence application, evaluated after 13 days
Summary of the method: as §2

[8] = tested on: Echinochloa crus-galli (ECHCG); assay: B1 Pre-emergence herbicidal activity; design: key to Pre-emergence herbicidal activity, ECHCG (damage score 0-5): 5=total damage to plant; 0=no damage to plant; settings: pre-emergence application, evaluated after 13 days
Summary of the method: as §1

[9] = tested on: Alopecurus myosuroides (ALOMY); assay: B2 Post-emergence herbicidal activity; design: key: 5=total damage to plant; 0=no damage to plant; settings: post-emergence application, evaluated after 13 days
Summary of the method: as §2

Setaria fabenri (SETFA) = assay: B2 Post-emergence herbicidal activity; design: key: 5=total damage to plant; 0=no damage to plant; settings: post-emergence application, evaluated after 13 days
Summary of the method: as §2

[10] = tested on: Triticum aestivium (TRZAW); assay: B2 Post-emergence herbicidal activity; design: key: 5=total damage to plant; 0=no damage to plant; settings: post-emergence application, evaluated after 13 days
Summary of the method: as §2

| Compound | Pre-emergence herbicidal activity, LOLPE (damage score 0-5) (Lolium perenne (LOLPE) [1]; rate 1000 g/ha) | Post-emergence herbicidal activity, AVEFA (damage score 0-5) (Avena fatua (AVEFA) [2]; rate 1000 g/ha) | Pre-emergence herbicidal activity, ALOMY (damage score 0-5) ([3]; rate 1000 g/ha) | Pre-emergence herbicidal activity, AVEFA (damage score 0-5) (Avena fatua (AVEFA) [4]; rate 1000 g/ha) | Pre-emergence herbicidal activity, TRAZW (damage score 0-5) ([5]; rate 1000 g/ha) | Pre-emergence herbicidal activity, SETFA (damage score 0-5) (Setaria fabenr (SETFA); rate 1000 g/ha) | Post-emergence herbicidal activity, ECHCG (damage score 0-5) ([6]; rate 1000 g/ha) | Post-emergence herbicidal activity, LOLPE (damage score 0-5) (Lolium perenne (LOLPE) [7]; rate 1000 g/ha) | Pre-emergence herbicidal activity, ECHCG (damage score 0-5) ([8]; rate 1000 g/ha) | Post-emergence herbicidal activity, ALOMY (damage score 0-5) ([9]; rate 1000 g/ha) | Post-emergence herbicidal activity, SETFA (damage score 0-5) (Setaria fabenri (SETFA); rate 1000 g/ha) | Post-emergence herbicidal activity, TRAZW (damage score 0-5) ([10]; rate 1000 g/ha) | also measured |
| --- | --- | --- | --- | --- | --- | --- | --- | --- | --- | --- | --- | --- | --- |
| Cc1ccc(C(=O)Nc2ccc(-c3cncc(F)c3)nc2C(F)(F)F)cc1 [Compound C30] | 1 | 4 | 2 | 3 | 0 | 5 | 5 | 3 | 5 | 0 | 5 | 0 | – |
| O=C(Nc1ccc(-c2cncc(F)c2)nc1C(F)(F)F)c1ccccn1 [Compound C45] | 1 | 2 | 0 | 2 | 0 | 4 | 5 | 2 | 5 | 0 | 5 | 1 | – |
| O=C1CCC(=O)N1c1ccc(-c2cncc(F)c2)nc1C(F)(F)F [Compound C67, 1-[6-(5-fluoro-3-pyridyl)-2-(trifluoromethyl)-3-pyridyl]pyrrolidine-2,5-dione] | 0 | 2 | 0 | 0 | 0 | 2 | 4 | 2 | 1 | 0 | 4 | 0 | – |
| CCC(=O)N(COCC(C)(C)C)c1ccc(-c2cncc(F)c2)nc1C(F)(F)F [Compound C99] | 1 | 2 | 0 | 1 | 0 | 5 | 4 | 2 | 2 | 0 | 5 | 0 | – |
| O=C(Nc1ccc(-c2cncc(F)c2)nc1C(F)(F)F)c1cccs1 [Compound C47] | 1 | 4 | 1 | 2 | 0 | 4 | 5 | 3 | 5 | 1 | 5 | 0 | – |
| Cc1ccsc1C(=O)Nc1ccc(-c2cncc(F)c2)nc1C(F)(F)F [Compound C51] | 0 | 2 | 0 | 0 | 0 | 4 | 2 | 1 | 3 | 0 | 4 | 0 | – |
| O=C(Nc1ccc(-c2cncc(F)c2)nc1C(F)(F)F)c1cncnc1 [Compound C120, N-[6-(5-fluoro-3-pyridyl)-2-(trifluoromethyl)-3-pyridyl]pyrimidine-5-carboxamide] | 1 | 3 | 0 | 3 | 0 | 5 | 5 | 3 | 4 | 1 | 5 | 2 | – |
| CCC(=O)N(C(C)=O)c1ccc(-c2cncc(F)c2)nc1C(F)(F)F [Compound C121, N-acetyl-N-[6-(5-fluoro-3-pyridyl)-2-(trifluoromethyl)-3-pyridyl]propanamide] | – | – | – | – | – | – | – | – | – | – | – | – | Pre-emergence herbicidal activity, LOLPE (damage score 0-5) (Lolium perenne (LOLPE) [1]; rate 250 g/ha): 1; Post-emergence herbicidal activity, AVEFA (damage score 0-5) (Avena fatua (AVEFA) [2]; rate 250 g/ha): 4; Pre-emergence herbicidal activity, ALOMY (damage score 0-5) ([3]; rate 250 g/ha): 0; Pre-emergence herbicidal activity, AVEFA (damage score 0-5) (Avena fatua (AVEFA) [4]; rate 250 g/ha): 2; Pre-emergence herbicidal activity, TRAZW (damage score 0-5) ([5]; rate 250 g/ha): 0; Pre-emergence herbicidal activity, SETFA (damage score 0-5) (Setaria fabenr (SETFA); rate 250 g/ha): 5; Post-emergence herbicidal activity, ECHCG (damage score 0-5) ([6]; rate 250 g/ha): 4; Post-emergence herbicidal activity, LOLPE (damage score 0-5) (Lolium perenne (LOLPE) [7]; rate 250 g/ha): 3; Pre-emergence herbicidal activity, ECHCG (damage score 0-5) ([8]; rate 250 g/ha): 3; Post-emergence herbicidal activity, ALOMY (damage score 0-5) ([9]; rate 250 g/ha): 1; Post-emergence herbicidal activity, SETFA (damage score 0-5) (Setaria fabenri (SETFA); rate 250 g/ha): 5; Post-emergence herbicidal activity, TRAZW (damage score 0-5) ([10]; rate 250 g/ha): 1 |
| C#CCN(C(=O)CC)c1ccc(-c2cncc(F)c2)nc1C(F)(F)F [Compound C94] | 1 | 2 | 0 | 1 | 0 | 5 | 4 | 2 | 2 | 0 | 5 | 0 | – |
| O=C(Nc1ccc(-c2cncc(F)c2)nc1C(F)(F)F)c1cccnc1 [Compound C50, N-[6-(5-fluoro-3-pyridyl)-2-(trifluoromethyl)-3-pyridyl]pyridine-3-carboxamide] | 1 | 3 | 0 | 1 | 0 | 4 | 2 | 1 | 3 | 1 | 4 | 0 | – |
| CCC(=O)N(C(=O)CC)c1ccc(-c2cncc(F)c2)nc1C(F)(F)F [Compound C44] | 1 | 3 | 0 | 2 | 0 | 4 | 5 | 3 | 5 | 1 | 5 | 0 | – |

— patent US11230538B2, “Herbicides” (SYNGENTA PARTICIPATIONS AG, priority 2016, dated 2022)
